# Experimental data as given in patent US9392789B2, “Compositions of dibromomalonamide and their use as biocides” (Dow Global Technologies LLC, priority 2009, dated 2016).
# Values joined by “and” are separate entries in the source; they are usually repeats but may differ in a detail not shown here. Equal entries are not always repeated.
# System: mixture of Pseudomonas aeruginosa, Klebsiella pneumoniae, Staphylococcus aureus, and Bacillus subtilis
# Assay: Growth inhibition assay (microtiter plate-based synergy assay)
# Assay type: cell-based
# Conditions: 24 h; for I90 value: single active, concentration for ~90% inhibition of growth
# From the text: Growth Inhibition Assay. […] Regardless of the mechanism of action, the impact of a biocide (or combination of biocides) can be measured over time on the basis of an increase in the size of the community.
# The assay measures the efficacy of one or more biocides at preventing growth of a consortium of bacteria in a dilute mineral salts medium. The medium contains (in mg/l) the following components: FeCl3.6H2O (1); CaCl2.2H2O (10); MgSO4.7H2O (22.5); (NH4)2SO4 (40); KH2PO4 (10); K2HPO4 (25.5); Yeast Extract (10); and glucose (100). After all components are added to deionized water, the pH of the medium is adjusted to 7.5. Following filter sterilization, aliquots are dispensed in 100 ul quantities to sterile microtiter plate wells. Dilutions of 2,2-dibromomalonamide (“DBMAL”) and/or “Biocide B” are then added to the microtiter plate. After preparing the combinations of actives as illustrated below, each well is inoculated with 100 μl of a cell suspension containing ca. 1×10^6 cells per milliliter of a mixture of Pseudomonas aeruginosa, Klebsiella pneumoniae, Staphylococcus aureus, and Bacillus subtilis. The final total volume of medium in each well is 300 μl. Once prepared as described herein, the concentration of each active ranges from 25 ppm to 0.195 ppm as illustrated in Table 1. The resulting matrix allows testing of eight concentrations of each active and 64 combinations of actives in the ratios (of actives).
# Controls (not shown) contain the medium with no biocide added. After preparing the combinations of actives as illustrated above, each well is inoculated with 100 μl of a cell suspension containing ca. 1×10^6 cells per milliliter of a mixture of Pseudomonas aeruginosa, Klebsiella pneumoniae, Staphylococcus aureus, and Bacillus subtilis. The final total volume of medium in each well is 300 μl.
# Immediately after the microtiter plates are prepared, the optical density (OD) readings for each well is measured at 580 nm and the plates are then incubated at 37° C. for 24 hr. After the incubation period, the plates are gently agitated before OD580 values are collected. The OD580 values at T0 are subtracted from T24 values to determine the total amount of growth (or lack thereof) that occurs. These values are used to calculate the percent inhibition of growth caused by the presence of each biocide and each of the 64 combinations. A 90% inhibition of growth is used as a threshold for calculating synergy index (SI) values with the following equation: Synergy Index=MDBMAL/CDBMAL+MB/CB
# where • CDBMAL: Concentration of DBMAL required to inhibit ˜90% of bacterial growth when used alone • CB: Concentration of biocide (B) required to inhibit ˜90% of bacterial growth when used alone. • MDBMAL: Concentration of DBMAL required to inhibit ˜90% of bacterial growth when used in combination with biocide (B). • MB: Concentration of biocide (B) required to inhibit ˜90% of bacterial growth when used in combination with DBMAL The SI values are interpreted as follows: • SI<1: Synergistic combination • SI=1: Additive combination • SI>1: Antagonistic combination
# In the Examples below, the amounts of biocides in the solution are measured in mg per liter of solution (mg/l). Since solution densities are approximately 1.00, the mg/l measurement corresponds to weight ppm. Both units may therefore be used interchangeably in the Examples.
SMILES,% Inhibition of growth (single active at 0.19 mg/l) [%],% Inhibition of growth (single active at 0.39 mg/l),% Inhibition of growth (single active at 0.78 mg/l) [%],% Inhibition of growth (single active at 1.56 mg/l) [%],% Inhibition of growth (single active at 3.13 mg/l) [%],% Inhibition of growth (single active at 6.25 mg/l) [%],% Inhibition of growth (single active at 12.5 mg/l),% Inhibition of growth (single active at 25.0 mg/l) [%],inhibition at 12.5 µg/mL (single active at 12.5 mg/l) [%],inhibition at 25 µg/mL (single active at 25.0 mg/l) [%],I90 value [mg/L],inhibition at 7.81 µg/mL (single active at 7.81 mg/l) [%],inhibition at 15.63 µg/mL (single active at 15.63 mg/l) [%],inhibition at 31.25 µg/mL (single active at 31.25 mg/l) [%],inhibition at 62.5 µg/mL (single active at 62.5 mg/l) [%],inhibition at 125 µg/mL (single active at 125 mg/l) [%],inhibition at 250 µg/mL (single active at 250 mg/l) [%],inhibition at 500 µg/mL (single active at 500 mg/l) [%],"inhibition at 1000 µg/mL (single active at 1,000 mg/l) [%]"
"CC1(C)C(=O)N(Cl)C(=O)N1Br [BCDMH, bromochlorodimethylhydantoin]",0,0%,5,0,2,100,98%,99,–,–,–,–,–,–,–,–,–,–,–
"[O][Cl+][O-] [ClO2, chlorine dioxide]",12,26%,35,63,75,99,100%,98,–,–,–,–,–,–,–,–,–,–,–
"NC(=O)C(Br)(Br)C(N)=O [DBMAL, 2,2-dibromomalonamide]",–,4% and 0% and 5% and 8% and 2%,–,–,–,9,99% and 92%,–,100,98,12.5,–,–,–,–,–,–,–,–
"O=c1nc([O-])n(Cl)c(=O)n1Cl.[Na+] [DCI, dichloroisocyanurate]",0,0%,0,98,100,97,100%,100,–,–,–,–,–,–,–,–,–,–,–
"OO [H2O2, hydrogen peroxide]",–,–,–,–,–,–,–,–,–,–,–,5,2,0,12,6,1,100,89
"OBr [HOBr, hypobromous acid]",0,0%,0,0,22,57,99%,100,–,–,–,–,–,–,–,–,–,–,–
"NCl [NH2Cl, monochloramine]",4,0%,2,97,96,94,97%,95,–,–,1.56,–,–,–,–,–,–,–,–
"O=c1n(Cl)c(=O)n(Cl)c(=O)n1Cl [TCI, trichloroisocyanurate]",0,0%,0,97,96,99,97%,94,–,–,–,–,–,–,–,–,–,–,–
